Test results from patent publication US11578055B2, “Triazacyclododecansulfonamide (“TCD”)-based protein secretion inhibitors” (KEZAR LIFE SCIENCES, priority 2018, dated 2023).
Where two headings read alike, the source gives them in different places.

Legend:
[1] = system: PD1 signal sequence plus 10 amino acids fused to Gaussia Luciferase (PD1-ss+10aa/Gaussia Luciferase); assay: Dox Induced PD1-ss-Gluc Assay; format: cell-based; details: 24 hr, read-out: 24 hr Dox Inducible PD1ssGluc 293FRT/TO: Mean IC50
Summary of the method: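 Compound dilutions in DMSO/media containing doxycycline were applied to a stable, inducible 293 T-REx line carrying the luciferase fusion, then incubated at 37 °C, 5% CO2. Where stereochemistry is not drawn, values relate to isomer mixtures.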

[2] = system: full length TNFα (amino acids 1-233) fused to Gaussia Luciferase; assay: Dox Induced TNFα-FL-Gluc Assay; format: cell-based; details: 24 hr, read-out: 24 hr Dox Inducible TNFaFLGluc 293FRT/TO: Mean IC50
Summary of the method: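 Compounds diluted in DMSO/medium with doxycycline were incubated at 37° C, 5% CO2 with 293 T-REx cells stably carrying a Tet-regulated TNFα(1-233)-Gaussia luciferase construct. Data for structures drawn without stereochemistry refer to stereoisomer mixtures.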

[3] = system: full length IL-2 (amino acids 1-153) fused to Gaussia Luciferase; assay: Dox Induced IL2-FL-Gluc Assay; format: cell-based; details: 24 hr, read-out: 24 hr Dox Inducible IL2FLGluc 293FRT/TO: Mean IC50
Summary of the method: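 Compounds in DMSO/media with doxycycline were added to cells plated the previous day and incubated at 37° C, 5% CO2. Cells: stable Flp-In 293 T-REx line, Dox-regulated expression of IL-2 (aa 1-153) fused at its C-terminus to Gaussia luciferase.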

[4] = system: multiple myeloma cell line NCl-H929; assay: H929 Cell Viability Assay; format: cell-based, human; details: Homo sapiens, NCI-H929, 48 h
Summary of the method: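 Viability was determined by CellTiter-Glo luminescence after a 48 h, 37 °C exposure of NCI-H929 cells to serial compound dilutions in medium containing 10% FBS. Where stereochemistry is not shown, values refer to a mix of stereoisomers.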

[5] = system: multiple myeloma cell line U266B1; assay: U266 Cell Viability Assay; format: cell-based, human; details: Homo sapiens, U-266, 48 hr
Summary of the method: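 Viability was measured by CellTiter-Glo luminescence after 48 h compound exposure at 37° C, 5% CO2. The cells were U266B1 multiple myeloma cells grown in RPMI 1640 plus 10% FBS. Where stereochemistry is not shown, values apply to the stereoisomer mixture.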

GM-CSF = assay: Human PBMC Cytokine Assay: GM-CSF; format: cell-based; details: anti-CD3/CD28 stimulation, 24 hours
Protocol: (§1) Human PBMC were freshly isolated from whole blood collections of 3 normal donors utilizing density gradient centrifugation followed by red blood cell lysis. PBMC from each donor were assayed separately. Cells were suspended in RPMI 1640 media supplemented with 5% fetal bovine serum, 2 mM L-glutamine, 10 mM HEPES, and 1× penicillin/streptomycin. PBMC were seeded at 200,000 cells/well in 96-well round-bottom plates either without stimulation or with stimulation by lipopolysaccharide (LPS, 1 μg/mL) or antibodies against human CD3 (plate-bound, 2 μg/mL) and human CD28 (soluble, 2 μg/mL). Serial dilutions of compound in DMSO/media were simultaneously added and PBMC were incubated at 37° C., 5% CO2 for 24 hours. After 24 hours, plates were centrifuged and half of the supernatant volume removed for cytokine analysis by electrochemiluminescent immunoassay (U-PLEX® Biomarker Multiplex, Meso Scale Discovery). For viability analysis, CellTiter-Glo® (Promega) was added to the remaining material in each well and quantified via luminescent plate reader.

IFNγ = assay: Human PBMC Cytokine Assay: IFNγ; format: cell-based; details: anti-CD3/CD28 stimulation, 24 hours
Protocol: as §1

IL-23 = assay: Human PBMC Cytokine Assay: IL-23; format: cell-based; details: LPS stimulation, 24 hours
Protocol: as §1

TNFα = assay: Human PBMC Cytokine Assay: TNFα; format: cell-based; details: anti-CD3/CD28 stimulation, 24 hours
Protocol: as §1

Human PBMC = Human PBMC CellTiter-Glo viability; format: cell-based; details: no stimulation, 24 hours
Protocol: as §1

IC50 ([1]; Dox inducible, 293FRT/TO cells) [nM] | IC50 ([2]; Dox inducible, 293FRT/TO cells) [nM] | IC50 ([3]; Dox inducible, 293FRT/TO cells) [nM] | EC50 ([4]; H929, Celltiter-Glo) [nM] | EC50 ([5]; U266, Celltiter-Glo) [nM] | IC50 (GM-CSF) [nM] | IC50 (IFNγ) [nM] | IC50 (IL-23) [nM] | IC50 (TNFα) [nM] | IC50 ([1]; 293FRT/TO) [nM] | IC50 ([2]; 293FRT/TO) [nM] | IC50 ([3]; 293FRT/TO) [nM] | EC50 ([4]; H929, read-out: 48 hr H929 Viability Celltiter-Glo: Mean EC50) [nM] | EC50 ([5]; U266, read-out: 48 hr U266 Viability Celltiter-Glo: Mean EC50) [nM] | SMILES | IC50 (Human PBMC) [nM]
8.3 | 191 | 21.4 | 282 | > 25000 | 25 | 21 | 79 | 17 |  |  |  |  |  | COc1cc(F)ccc1N1CCN(S(=O)(=O)N2CCCN(CC3CCCCC3)CCCN(S(=O)(=O)c3ccc(N(C)C)cc3)C[C@H](C)C2)CC1 [A137] | > 25000
4.95 | 155 | 12.6 | 180 | > 25000 | 19 | 19 | 54 | 13 |  |  |  |  |  | COc1cc(F)ccc1N1CCN(S(=O)(=O)N2CCCN(CC3CCCCC3)CCCN(S(=O)(=O)c3ccc(N(C)C)cc3)C[C@H](C)C2)C[C@H]1C [A177, 4-{[(3S)-9-(cyclohexylmethyl)-5-{[(3 R)-4-(4-fluoro-2-methoxyphenyl)-3-methylpiperazin-1-yl]sulfonyl}-3-methyl-1,5,9-triazacyclododecan-1-yl]sulfonyl}-N,N-dimethylaniline] | > 25000
153 | 1220 | 306 | 2710 | > 25000 |  |  |  |  |  |  |  |  |  | C[C@H]1CN(S(=O)(=O)c2ccc(N(C)C)cc2)CCCN(CC2CCCCC2)CCCN(S(=O)(=O)N2CCc3c(C#N)cccc3C2)C1 [A151, 2-{[(3S)-9-(cyclohexylmethyl)-5-[4-(dimethylamino)benzenesulfonyl]-3-methyl-1,5,9-triazacyclododecan-1-yl]sulfonyl}-1,2,3,4-tetrahydroisoquinoline-5-carbonitrile] | 
 |  |  |  |  | 165 | 152 | 200 | 82 | 19.1 | 492 | 50.2 | 224 | > 25000 | C[C@H]1CN(S(=O)(=O)c2ccc(N(C)C)cc2)CCCN(CC2CCCCC2)CCCN(S(=O)(=O)N2CCc3cc(Cl)ccc3C2)C1 [A87] | > 25000
